Measured values from patent publication US20030091980A1, “Detection and characterization of psychoactives using analysis of network level physiological responses in a neuronal sample” (priority 2001, published 2003).

Tests used:
Assay type in all cases: cell-based, Sprague-Dawley rat
hippocampal slice [1] = test: Network level evoked response to single pulse Schaffer commissural stimulation during carbachol-induced rhythms, multi-electrode dish
Excerpt: (§1) Procedures for the preparation of the recently introduced Multi-Electrode Dish (Panasonic: MED probe) are described by Oka et al., J Neurosci Methods 93: 61-67 (1999). The device has an array of 64 planar microelectrodes, each having a size of 50×50 μm, arranged in an 8 by 8 pattern. Probes used in the experiments described below were medium arrays with 300 μm interelectrode spacing (Panasonic: MED-P530AP).
For sufficient adhesion of the slice to the probe, the surface of the MED probe was treated with 0.1% polyethylenimine (Sigma: P-3143) in 25 mM borate buffer, pH 8.4, for 8 hours at room temperature. The probe surface was rinsed 3 times with sterile distilled water. The probe (chamber) was then filled with DMEM/F-12 mixed medium, containing 10% fetal bovine serum (GIBCO: 16141-079) and 10% horse serum (GIBCO: 16050-122), for at least 1 hour at 37° C. DMEM/F-12 mixed medium is a 1:1 mixture of Dulbecco's Modified Eagle's Medium and Ham's F-12 (GIBCO: D/F-12 medium, 12400-024), supplemented with N2 supplement (GIBCO: 17502-014) and hydrocortisone (20 nM, Sigma, H0888).
(§2) A 17-25 day old Sprague-Dawley rat was sacrificed by decapitation after anesthesia using halothane (2-Bromo-2-chloro-1,1,1-trifluoroethane, Sigma: B4388), and the whole brain was removed. The brain was immediately soaked in ice-cold, oxygenated preparation buffer of the following composition (in mM): 124 NaCl, 26 NaHCO3, 10 glucose, 3 KCl, 1.25 NaH2PO4, 1.5 CaCl2, 0.5 MgSO4, for approximately 2 minutes. Appropriate portions of the brain were trimmed and placed on the ice-cold stage of a vibrating tissue slicer (Leica: VT-1000S). The stage was immediately filled with both oxygenated and frozen preparation buffers. The thickness of each tissue slice was 350 μm. Each slice was gently taken off the blade using a blunt-end pipette, and immediately soaked in oxygenated preparation buffer for at least 1 hour at room temperature. A slice was then placed on the center of the MED probe, positioned to cover the 8×8 array. After positioning the slice, the MED probe was placed directly in a box filled with 95% O2 and 5% CO2 and allowed to recover and adhere at 32° C. for 1 hour.
(§3) During electrophysiological recording, the slices on the MED probe were placed in a small CO2 incubator (Yamato: model IC400) at 32° C. The slices remained on the MED probe, which was attached to a recording interface, and a moisturized 95% O2 and 5% CO2 gas mixture was blown from above. In this condition, responses were recorded for more than 2 hours.
Carbachol was obtained from Sigma. […]
(§4) Spontaneous and evoked field potentials at all 64 sites were recorded simultaneously with the multi-channel recording system (Panasonic: MED64 system) at a 20 kHz sampling rate. […]

hippocampal slice [2] = test: Carbachol-induced beta rhythms in hippocampal tissue (64-electrode recording, FFT); details: FIG. 2
Excerpt: as §1
A 17-25 day old Sprague-Dawley rat was sacrificed by decapitation after anesthesia using halothane (2-Bromo-2-chloro-1,1,1-trifluoroethane, Sigma: B4388), and the whole brain was removed. The brain was immediately soaked in ice-cold, oxygenated preparation buffer of the following composition (in mM): 124 NaCl, 26 NaHCO3, 10 glucose, 3 KCl, 1.25 NaH2PO4, 1.5 CaCl2, 0.5 MgSO4, for approximately 2 minutes. Appropriate portions of the brain were trimmed and placed on the ice-cold stage of a vibrating tissue slicer (Leica: VT-1000S). […]
During electrophysiological recording, the slices on the MED probe were placed in a small CO2 incubator (Yamato: model IC400) at 32° C. […] In this condition, responses were recorded for more than 2 hours. […]
as §4

hippocampal slice [3] = test: Evoked responses following Schaffer collateral stimulation in presence and absence of carbachol (field potentials, current source density)
Procedure: as §2, §3
Carbachol was obtained from Sigma. A carbachol solution was applied to the neuronal samples at known concentrations of either 25 or 50 μM. The lower concentration was used in all except two cases. […] Carbachol solutions were prepared daily from frozen aliquots.
Spontaneous and evoked field potentials at all 64 sites were recorded simultaneously with the multi-channel recording system (Panasonic: MED64 system) at a 20 kHz sampling rate. In the case of the evoked response, one or more than two microelectrodes out of the 64 available were chosen for stimulating. Bipolar constant current pulses (20 to 40 μA, 0.1 msec) were produced by the data acquisition software through the isolator. The stimulating microelectrodes were selected by the 64 switchbox.
The method of continuous, two-dimensional current source density employed has been previously described (Shimono et al., supra). The 2-dimensional array of electrodes allows for simultaneous estimation of current flows in any direction within the plane of the slice. The data was low-pass filtered at 100 Hz and spatially smoothed by a 3×3-weighted average kernel (0 1/8 0, 1/8 1/2 1/8, and 0 1/8 0). […] A limitation of the technique is that only large spatial patterns, with radii≧one-half of the interelectrode distance, can be accurately resolved. Additionally, low-pass filtering removes high-frequency data, limiting the amount of fine detail that can be observed.

[4] = 100 μM heptachlor, Schaffer commissural stimulation, FIG. 8
[5] = CA1 apical dendrites, presence of carbachol
[6] = single pulse stimulation with carbachol, eight slices

SMILES | depolarizing phase of the slow component of the waveform (hippocampal slice [1]; 100 μM heptachlor, FIG. 8) | fast component, corresponding to the traditional evoked response (hippocampal slice [1]; [4]) | slow component of the network complex evoked response (hippocampal slice [1]; [4]) | network level evoked response to single pulse Schaffer commissural stimulation upon infusion (hippocampal slice [1]; figure legends FIGS. 8-11) | dominant frequency of rhythms (normalized power spectra, all 64 electrodes) (hippocampal slice [2]; 25 μM carbachol) | stability of rhythms (hippocampal slice [2]; after carbachol infusion) | intensity of activity (current source density) (hippocampal slice [3]; 25 μM carbachol vs without carbachol, 10 ms after stimulation) | spread of activity (current source density) (hippocampal slice [3]; 25 μM carbachol vs without carbachol, 10 ms after stimulation, particularly field CA3) | start of slow negative going component after stimulation (hippocampal slice [3]; [5]) | start of slow negative going component after the initial response (hippocampal slice [3]; [5]) | return to baseline after stimulation (hippocampal slice [3]; CA1 stratum radiatum and oriens, carbachol-induced beta waves, FIG. 4) | return to baseline of positive-going potential (hippocampal slice [3]; CA3 basal dendritic field, carbachol-driven beta rhythms, FIG. 5) | stimulation trials eliciting a sustained network response (hippocampal slice [3]; Schaffer collateral stimulation in the presence of cholinergic rhythms) | frequency of bursts of spikes accompanying the first carbachol dependent slow potential (hippocampal slice [3]; field CA3) | recordings with responses similar to the control responses (hippocampal slice [3]; [6]) | traces with bursts of spikes in CA3 stratum pyramidale and prominent after potentials in CA1 and CA3 (hippocampal slice [3]; [6])
ClC1=C(Cl)C2(Cl)C3C(Cl)C=CC3C1(Cl)C2(Cl)Cl (stereo not shown) [heptachlor] | complete elimination | not changed | changed dramatically | changes | – | – | – | – | – | – | – | – | – | – | – | –
C[N+](C)(C)CCOC(N)=O [carbachol] | – | – | – | – | in the beta range | stable for over two hours | markedly increased | far greater | 25 ms | about 10 msec | 140 ms | approximately 125 ms | approximately 70% | 100-200 Hz | 16 of 53 | 37 of 53
